pIC50: −log10 of the molar value.
Assays:
[1] = tested on: human myeloid progenitors (CFU-GM); assay: Myeloid CFU assay (colony forming cell assay, bone marrow); type: cell-based; settings: 14 days in culture
Protocol: (§1) Compounds were tested to evaluate the potential effects on human erythroid and myeloid progenitors using colony forming cell assays. Clonogenic progenitors of human erythroid (CFU-E, BFU-E), granulocyte-monocyte (CFU-GM) and multipotential (CFU-GEMM) lineages were assessed in a semi-solid methylcellulose-based media formulation containing rhlL-3 (10 ng/mL), rhGM-SCF (10 ng/mL), rhSCF (50 ng/mL) and Epo (3 U/mL).
(§2) Normal human bone marrow light density cells derived from normal bone marrow (NorCal Biologics, California), were stored in the gaseous phase of liquid nitrogen (−152° C.) until required for the assay. On the day of the experiment, the cells were thawed rapidly, the contents of each vial was diluted in 10 mL of Iscove's modified Dulbecco's medium containing 10% fetal bovine serum (IMDM+10% FBS) and washed by centrifugation (approximately 1200 r.p.m. for 10 minutes, room temperature). The supernatant was discarded and the cell pellets resuspended in a known volume of IMDM+10% FBS. A cell count (3% glacial acetic acid) and viability assessment (trypan blue exclusion test) was performed for the bone marrow sample.
(§3) On the day of the experiment, the compounds were dissolved in DMSO to a stock concentration of 10 mM. Serial dilutions were prepared from the stock concentration to achieve concentrations of 2 and 0.4 mM. When added to the methylcellulose-based media at 1:1000 (v/v), the final test concentrations of 10, 2 and 0.4 μM were achieved. Additionally, 5-FU was evaluated at 1.0, 0.1 and 0.01 μg/mL.
(§4) Clonogenic progenitors of the human erythroid (CFU-E and BFU-E) and myeloid (CFU-GM) lineages were set up in the methylcellulose-based media formulations described above. All compounds were added to the medium to give the final desired concentrations (10, 2 and 0.4 μM). 5-Fluorouracil (Sigma Aldrich) was used as a positive control for progenitor proliferation (inhibition of colony growth) and was introduced to the human bone marrow cultures at 1.0, 0.1, and 0.01 μg/mL. Solvent control cultures (containing no compound but 0.1% DMSO) as well as standard controls (containing no compound and no DMSO) were also initiated.
(§5) Human myeloid and erythroid progenitor assays were initiated at 2.0×10^4 cells per culture. Following 14 days in culture, myeloid and erythroid colonies were assessed microscopically and scored by trained personnel. The colonies were divided into the following categories based on size and morphology: CFU-E, BFU-E, CFU-GM and CFU-GEMM.
(§6) The mean±one standard deviation of three replicate cultures was calculated for progenitors of each category (CFU-E, BFU-E, etc.). Two-tailed t-tests were performed to assess if there was a difference in the number of colonies generated between solvent control and treated cultures. Due to the potential subjectivity of colony enumeration, a p value of less than 0.01 is deemed significant. To calculate the concentration of 50% inhibition of colony growth (IC50) for each compound, a dose response curve was generated plotting the log of the compound concentration versus the percentage of control colony growth using XLfit software (IDBS). The concentration of 50% inhibition of colony growth (IC50) was calculated based on the sigmoid curve fit using Dose-Response, One-Site Model formula: y=A+[(B−A)/(1+((C/x)^D))], where A=the initial value (baseline response), B=maximum response, C=center (drug concentration that provokes a response halfway between A and B) and D=slope of the curve at midpoint. Further, plots and additional dose response curves were generated using GraphPad Prism 7.0.
(§7) Erythroid (CFU-E and BFU-E), myeloid (CFU-GM) and multi-potential (CFU-GEMM) colony enumeration was performed by trained personnel. The distribution of colony types as well as general colony and cellular morphology was analyzed. For statistical analysis colony numbers in compound treated cultures were compared to the solvent control cultures. […]

[2] = tested on: human erythroid progenitors (CFU-E, BFU-E); assay: Erythroid CFU assay (colony forming cell assay, bone marrow); type: cell-based; settings: 14 days in culture
Protocol: as §1, §2, §3, §4, §5, §6, §7

[3] = target: HDAC2 (Homo sapiens (Human), UniProt Q92769); assay: HDAC2 enzymatic assay (Caliper LabChip, peptide deacetylation); type: biochemical; settings: 17 hours, 25° C.
Sequence of HDAC2 (Q92769 whole entry): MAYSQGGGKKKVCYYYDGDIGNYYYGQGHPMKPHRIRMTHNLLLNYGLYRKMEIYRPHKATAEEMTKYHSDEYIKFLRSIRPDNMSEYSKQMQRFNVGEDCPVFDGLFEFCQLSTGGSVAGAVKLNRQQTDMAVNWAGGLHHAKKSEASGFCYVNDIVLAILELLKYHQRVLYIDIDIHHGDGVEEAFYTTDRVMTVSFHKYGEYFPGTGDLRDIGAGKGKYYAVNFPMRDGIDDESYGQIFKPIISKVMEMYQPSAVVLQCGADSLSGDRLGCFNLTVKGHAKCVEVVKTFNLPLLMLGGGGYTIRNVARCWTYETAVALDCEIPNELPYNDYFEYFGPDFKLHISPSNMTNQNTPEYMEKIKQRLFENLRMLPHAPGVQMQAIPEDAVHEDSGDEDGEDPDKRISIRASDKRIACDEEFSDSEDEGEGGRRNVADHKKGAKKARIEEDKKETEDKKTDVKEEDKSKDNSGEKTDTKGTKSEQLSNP
Protocol: The following describes an assay protocol for measuring the deacetylation of a peptide substrate by the enzymes HDAC2 or HDAC1. Enzyme, substrate, and cofactors are combined in a well of a microtiter plate and incubated for […] at 25° C. At the end of the incubation, the reaction is quenched by the addition of an SDS-containing buffer. Substrate and product are separated and quantified electrophoretically using the microfluidic-based LabChip 3000 Drug Discovery System from Caliper Life Sciences. The peptide substrate used in this assay is FAM-TSRHK(AC)KL-CONH2 (FAM is carboxyfluorescein). Peptide should be >98% purity by Capillary Electrophoresis. • 1. To a well of a 384-well plate, add 5 μL of 2× enzyme buffer. Using Labcyte Echo 550, add 100 nl compound. Enzyme and compound may be pre-incubated at this time if desired. • 2. Add 5 μL of 2× substrate buffer. • 3. Incubate plate at 25° C. for 17 hours. • 4. Terminate reaction by adding 40 μL of 1.55× stop buffer. • 5. Create job on a Caliper LabChip® 3000 Drug Discovery System. • 6. […]
Substrate and product peptides present in each sample are separated electrophoretically using the LabChip 3000 capillary electrophoresis instrument. As substrate and product peptides are separated, two peaks of fluorescence are observed. Change in the relative fluorescence intensity of the substrate and product peaks is the parameter measured, reflecting enzyme activity. Capillary electrophoregramms (RDA acquisition files) are analyzed using HTS Well Analyzer software (Caliper Life Sciences). The […] in each sample is determined as the product to sum ratio (PSR): P/(S+P), where P is the peak height of the product peptide and S is the peak height of the substrate peptide. For each compound, enzyme activity is measured at various concentrations (12 concentrations of compound spaced by 3× dilution intervals). […]
The IC50 values of inhibitors are determined by fitting the inhibition curves (Pinh versus inhibitor concentration) by 4 parameter sigmoidal dose-response model using XLfit 4 software (IBDS). […]

Row | SMILES | Myeloid % control @ 10 uM dose [1] [%] | Erythroid % control @ 10 uM dose [2] [%] | pIC50 [3]
1 | Cc1cc2c(cn1)CN(C(=O)Nc1nc(-c3cccnc3)ccc1N)C2 [Compound 12] | 104 | 93 | –
2 | CCc1ncc2c(n1)CN(C(=O)Nc1nc(-c3cccs3)ccc1N)C2 [Compound 3] | 89.4 | 46.6 | –
3 | Cc1ncc2c(n1)CN(C(=O)Nc1nc(-c3ccc(F)cc3)ccc1N)C2 [Compound 14] | 112 | 53 | –
4 | Nc1ccc(-c2ccc(F)cc2)nc1NC(=O)N1Cc2cn(C3COC3)nc2C1 [Compound 1] | 54 | 37 | –
5 | CCc1ncc2c(n1)CN(C(=O)Nc1nc(-c3ccc(F)cc3)ccc1N)C2 [Compound 17] | 79.1 | 59.6 | 5.30 to 6.30
6 | CCc1cc2c(cn1)CN(C(=O)Nc1nc(-c3cccnc3)ccc1N)C2 [Compound 8] | 102 | 98 | 5.30 to 6.30
7 | COCCn1cc2c(n1)CN(C(=O)Nc1nc(-c3ccc(F)cc3F)ccc1N)C2 [Compound 9] | 62.8 | 40.4 | –
8 | Cc1ncc2c(n1)CN(C(=O)Nc1nc(-c3ccc(F)s3)ccc1N)C2 [Compound 2] | 87 | 40 | –

From patent US10793567B2, “Bicyclic inhibitors of histone deacetylase” (Rodin Therapeutics, Inc., priority 2017, dated 2020)
